This note sets out measurements from paper PMC11522673 (Communications Biology, 2024).

The test system of one data set is PglaDRR. Briefly: LC-MS product formation, substrate-inhibition fit. In kind it is biochemical, Papaver glaucum. The conditions noted are these: reduction; 500 μM NADPH; Bis-tris, optimized pH and temperature (Table S12).
The test system of a further data set is PburDRR. Briefly: LC-MS product formation, substrate-inhibition fit. The following applies: reduction; 500 μM NADPH; Bis-tris, optimized pH and temperature (Table S12). The format is biochemical, Papaver burseri.
The test system of a further data set is PlasDRR(REPI). Kind of data set: LC-MS product formation, substrate-inhibition fit. The format is biochemical, Papaver lasiothrix. The conditions noted are these: reduction; 500 μM NADPH; Bis-tris, optimized pH and temperature (Table S12).
Another data set concerns PglaCOR. Briefly: LC-MS product formation, Michaelis-Menten fit. The format is biochemical, Papaver glaucum. The conditions noted are these: reduction; 1 mM NADPH; Bis-tris, optimized pH and temperature (Table S12).
A further data set has as its system PtriCOR3. Kind of data set: LC-MS product formation, Michaelis-Menten fit. The conditions noted are these: reduction; 1 mM NADPH; Bis-tris, optimized pH and temperature (Table S12). In kind it is biochemical, Papaver triniifolium.
The next data set addresses T1, PsomCOR (Papaver somniferum, UniProt Q9SQ68).
T1 sequence (Q9SQ68 1-321): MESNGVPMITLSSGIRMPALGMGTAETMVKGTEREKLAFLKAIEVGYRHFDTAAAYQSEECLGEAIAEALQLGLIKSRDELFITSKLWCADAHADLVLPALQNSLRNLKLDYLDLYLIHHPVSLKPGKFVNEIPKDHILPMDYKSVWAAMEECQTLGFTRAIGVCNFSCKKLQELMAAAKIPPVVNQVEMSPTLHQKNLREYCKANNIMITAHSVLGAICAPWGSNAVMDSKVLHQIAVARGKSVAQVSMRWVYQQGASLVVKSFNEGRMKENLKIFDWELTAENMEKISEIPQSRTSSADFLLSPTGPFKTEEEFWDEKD
Kind of data set: LC-MS product formation, Michaelis-Menten fit. The conditions noted are these: reduction; 1 mM NADPH; Bis-tris, optimized pH and temperature (Table S12).

For another data set, the system named is PapoCOR1. Kind of data set: LC-MS product formation, Michaelis-Menten fit. In kind it is biochemical, Papaver apokrinomenon. The following applies: reduction; 1 mM NADPH; Bis-tris, optimized pH and temperature (Table S12).
Substrate in data set [1]: COc1ccc(CC2=[N+](C)CCc3cc(OC)c(O)cc32)cc1O
Kind of data set: LC-MS product formation, substrate-inhibition fit. The format is biochemical, Papaver somniferum. The conditions noted are these: reduction; 500 μM NADPH; Bis-tris, optimized pH and temperature (Table S12).

Turning to `COc1ccc(CC2=[N+](C)CCc3cc(OC)c(O)cc32)cc1O` [1,2-dehydroreticuline], the Km – broadly, the concentration of substrate that gives half-maximal velocity – was 16.4 ± 2.3 µM with PglaDRR, 5.5 ± 1 µM in the data set with PburDRR and 12.3 ± 2.2 µM with PlasDRR(REPI).
Take `COc1ccc2c3c1O[C@H]1C(=O)C=C[C@H]4[C@@H](C2)N(C)CC[C@]314` [codeinone]: the Michaelis-Menten constant (Km) with PglaCOR was determined as 78.8 ± 5.6 µM; in the data set with PtriCOR3, 10 ± 0.9 µM; on PsomCOR, 17.4 ± 1.6 µM; in the data set with PapoCOR1, 117 ± 17.8 µM.

B1: PsomDRR(REPI) (Papaver somniferum) (protein)
chain: MESSGVPVITLGSGKVMPVLGMGTFEKVGKGSERERLAILKAIEVGYRYFDTAAAYETEEVLGEAIAEALQLGLVKSRDELFISSMLWCTDAHADRVLLALQNSLRNLKLEYVDLYMLPFPASLKPGKITMDIPEEDICRMDYRSVWAAMEECQNLGFTKSIGVSNFSCKKLQELMATANIPPAVNQVEMSPAFQQKKLREYCNANNILVSAISVLGSNGTPWGSNAVLGSEVLKKIAMAKGKSVAQVSMRWVYEQGASLVVKSFSEERLRENLNIFDWELTKEDHEKIGEIPQCRILSAYFLVSPNGPFKSQEELWDDEA
Consider B1, for which, in data set [1], the Michaelis constant (Km) is 7.3 ± 2.2 µM; the kcat (commonly the number of substrate molecules converted per active site and unit of time at saturation) worked out at 5.36 ± 1.71 s⁻¹; the kcat/Km (commonly the second-order rate constant that governs catalysis at low substrate concentration) came to 735000 M⁻¹ s⁻¹.
